Data published in patent US20240409585A1, “MACROCYCLIC IMMUNOMODULATORS” (priority 2021, published 2024).
Bridge positions count the residues as written; N and C are the ends. Square brackets hold non-standard residues; d marks the D form. Peptide text beside a SMILES is read from it. * marks the point of attachment. ξ: configuration not given here. Tyr(3-NO2) = N[C@@H](Cc1ccc(O)c([N+](=O)[O-])c1)C(=O)O; Phe(3-COOH) = N[C@@H](Cc1cccc(C(=O)O)c1)C(=O)O; Phe(4-COOH) = N[C@@H](Cc1ccc(C(=O)O)cc1)C(=O)O; Bip = N[C@@H](Cc1ccc(-c2ccccc2)cc1)C(=O)O; Phe(3-CN) = N#Cc1cccc(C[C@H](N)C(=O)O)c1; Phe(3-Me) = Cc1cccc(C[C@H](N)C(=O)O)c1; 1Nal = N[C@@H](Cc1cccc2ccccc12)C(=O)O; aIle = CC[C@@H](C)[C@H](N)C(=O)O; 3Pal = N[C@@H](Cc1cccnc1)C(=O)O; 4Pal = N[C@@H](Cc1ccncc1)C(=O)O; Cha = N[C@@H](CC1CCCCC1)C(=O)O; Cit = NC(=O)NCCC[C@H](N)C(=O)O; Ile(3ξ) = CCC(C)[C@H](N)C(=O)O; Carboxymethyl = O=C(O)C*; NMeA = CN[C@@H](C)C(=O)O; Nle = CCCC[C@H](N)C(=O)O; Orn = NCCC[C@H](N)C(=O)O; Dab = NCC[C@H](N)C(=O)O; Dap = NC[C@H](N)C(=O)O; ξV = CC(C)C(N)C(=O)O; ξC = NC(CS)C(=O)O; Acm = CC(=O)NC*

Each compound was assayed against T1, PE-labeled human PD-L1-Ig binding to Jurkat cell line over-expressing human PD-1 (Jurkat-PD-1) (Homo sapiens, UniProt Q15116) (assay: Jurkat-PD-1 Cell Binding High-Content Screening Assay (CBA): Method 1). Conditions: Jurkat-hPD-1 cells, PE-labeled PD-L1-Ig 20 nM final; read-out: Jurkat HPDL1 PD1 IC50 (uM) (Method 1).
T1 construct: expressed in transfected cells; host or cells: Jurkat
T1 sequence (Q15116 25-288): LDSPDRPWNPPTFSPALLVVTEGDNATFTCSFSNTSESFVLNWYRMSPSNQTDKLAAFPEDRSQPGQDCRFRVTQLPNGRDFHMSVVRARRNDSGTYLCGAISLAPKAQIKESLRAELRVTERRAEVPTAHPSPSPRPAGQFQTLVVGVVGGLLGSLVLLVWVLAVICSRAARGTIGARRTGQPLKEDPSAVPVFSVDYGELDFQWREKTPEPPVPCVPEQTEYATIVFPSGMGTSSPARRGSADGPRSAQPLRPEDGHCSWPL

Compound	IC50 [µM]
CC[C@H](C)[C@@H]1NC(=O)[C@H](Cc2ccc(-c3ccccc3)cc2)NC(=O)[C@H](C(C)C)NC(=O)[C@H](Cc2cccc(C)c2)NC(=O)[C@H](CC(=O)O)NC(=O)[C@H](Cc2ccc(C(=O)O)cc2)NC(=O)[C@H](Cc2ccc(OCC(=O)O)cc2)NC(=O)CSC[C@@H](C(=O)N[C@@H](C)C(N)=O)NC(=O)[C@H]([C@@H](C)O)NC(=O)[C@H](C(C)C)NC(=O)[C@H](CC(C)C)NC(=O)[C@H](CCN)NC(=O)[C@@H](CC(C)C)NC(=O)[C@H](C)N(C)C1=O [Compound 1572] ({CH2CO}-Y(Carboxymethyl)[Phe(4-COOH)]D[Phe(3-Me)]V[Bip]I[NMeA][dL][Dab]LVTCA-NH2; thioether N-14)	0.01
CC(C)C[C@@H]1NC(=O)[C@H](CCN)NC(=O)[C@@H](CC(C)C)NC(=O)[C@H](C)N(C)C(=O)[C@H](CCCNC(N)=O)NC(=O)[C@H](Cc2ccc(-c3ccccc3)cc2)NC(=O)[C@H](C(C)C)NC(=O)[C@H](Cc2c[nH]c3ccccc23)NC(=O)[C@H](CC(=O)O)NC(=O)[C@H](Cc2cccc(C#N)c2)NC(=O)[C@H](CN)NC(=O)CSC[C@@H](C(=O)N[C@@H](C)C(N)=O)NC(=O)[C@H]([C@@H](C)O)NC(=O)[C@H](C(C)C)NC1=O [Compound 1403] ({CH2CO}-[Dap][Phe(3-CN)]DWV[Bip][Cit][NMeA][dL][Dab]LVTCA-NH2; thioether N-14)	0.13
CC(C)C[C@@H]1NC(=O)[C@H](CCCN)NC(=O)[C@@H](CC(C)C)NC(=O)[C@H](C)N(C)C(=O)[C@H](CCCNC(=N)N)NC(=O)[C@H](Cc2ccc(-c3ccccc3)cc2)NC(=O)[C@H](C(C)C)NC(=O)[C@H](Cc2c[nH]c3ccccc23)NC(=O)[C@H](CC(=O)O)NC(=O)[C@H](Cc2ccc(O)cc2)NC(=O)[C@H](Cc2ccccc2)NC(=O)CSC[C@@H](C(=O)N[C@@H](CO)C(N)=O)NC(=O)[C@H]([C@@H](C)O)NC(=O)[C@H](C(C)C)NC1=O [Compound 1176] ({CH2CO}-FYDWV[Bip]R[NMeA][dL][Orn]LVTCS-NH2; thioether N-14)	0.07
CC(C)C[C@@H]1NC(=O)[C@H](CCN)NC(=O)[C@@H](CC(C)C)NC(=O)[C@H](C)N(C)C(=O)[C@H](CCCNC(N)=O)NC(=O)[C@H](Cc2ccc(-c3ccccc3)cc2)NC(=O)[C@H](C(C)C)NC(=O)[C@H](Cc2c[nH]c3ccccc23)NC(=O)[C@H](CC(=O)O)NC(=O)[C@H](Cc2ccc(O)c([N+](=O)[O-])c2)NC(=O)[C@H](Cc2cccnc2)NC(=O)CSC[C@@H](C(=O)N[C@@H](C)C(N)=O)NC(=O)[C@H]([C@@H](C)O)NC(=O)[C@H](C(C)C)NC1=O [Compound 1338] ({CH2CO}-[3Pal][Tyr(3-NO2)]DWV[Bip][Cit][NMeA][dL][Dab]LVTCA-NH2; thioether N-14)	0.01
CC[C@@H](C)[C@@H]1NC(=O)[C@H](Cc2ccc(-c3ccccc3)cc2)NC(=O)[C@H](Cc2cnc[nH]2)NC(=O)[C@H](Cc2c[nH]c3ccccc23)NC(=O)[C@H](CC(=O)O)NC(=O)[C@H](Cc2ccc(C(=O)O)cc2)NC(=O)[C@H](Cc2ccc(OCC(=O)O)cc2)NC(=O)CSC[C@@H](C(=O)N[C@@H](CCCCN)C(N)=O)NC(=O)[C@H](CO)NC(=O)C(C(C)C)NC(=O)[C@H](CC(C)C)NC(=O)[C@H](CC(N)=O)NC(=O)[C@@H](CC(C)C)NC(=O)[C@H](C)N(C)C1=O (stereo partly drawn) [Compound 2101] ({CH2CO}-Y(Carboxymethyl)[Phe(4-COOH)]DWH[Bip][aIle][NMeA][dL]NL[ξV]SCK-NH2; thioether N-14)	0.11
CC(C)C[C@@H]1NC(=O)[C@H](CCCNC(=N)N)NC(=O)[C@H](Cc2cccc3ccccc23)NC(=O)[C@H](C)N(C)C(=O)[C@H](CCCNC(=N)N)NC(=O)[C@H](Cc2ccc(-c3ccccc3)cc2)NC(=O)[C@H](C(C)C)NC(=O)[C@H](Cc2c[nH]c3ccccc23)NC(=O)[C@H](CC(=O)O)NC(=O)[C@H](Cc2ccc(O)cc2)NC(=O)[C@H](Cc2ccccc2)NC(=O)CSC[C@@H](C(=O)NCC(N)=O)NC(=O)[C@H](CO)NC(=O)[C@H](C(C)C)NC1=O [Compound 1012] ({CH2CO}-FYDWV[Bip]R[NMeA][1Nal]RLVSCG-NH2; thioether N-14)	0.13
CC(C)C[C@@H]1NC(=O)[C@H](CCN)NC(=O)[C@@H](CC(C)C)NC(=O)[C@H](C)N(C)C(=O)[C@H](CCCNC(=N)N)NC(=O)[C@H](Cc2ccc(-c3ccccc3)cc2)NC(=O)[C@H](C(C)C)NC(=O)[C@H](Cc2c[nH]c3ccccc23)NC(=O)[C@H](CC(=O)O)NC(=O)[C@H](Cc2ccc(O)cc2)NC(=O)[C@H](CCN)NC(=O)CSC[C@@H](C(=O)N[C@@H](C)C(N)=O)NC(=O)[C@H]([C@@H](C)O)NC(=O)[C@H](C(C)C)NC1=O [Compound 1340] ({CH2CO}-[Dab]YDWV[Bip]R[NMeA][dL][Dab]LVTCA-NH2; thioether N-14)	0.02
CC(=O)NCSC[C@@H]1NC(=O)[C@H](Cc2cccc(C)c2)NC(=O)[C@H](CC(=O)O)NC(=O)[C@H](Cc2ccncc2)NC(=O)[C@H](Cc2ccc(OCC(=O)O)cc2)NC(=O)CSCC(C(=O)NCC(N)=O)NC(=O)[C@H](CSCNC(C)=O)NC(=O)[C@H](C(C)C)NC(=O)[C@H](CC(C)C)NC(=O)[C@H](CC(N)=O)NC(=O)[C@@H](CC(C)C)NC(=O)[C@H](C)N(C)C(=O)[C@H](C(C)C)NC(=O)[C@H](Cc2ccc(-c3ccccc3)cc2)NC1=O (stereo partly drawn) [Compound 1885] ({CH2CO}-Y(Carboxymethyl)[4Pal]D[Phe(3-Me)]C(Acm)[Bip]V[NMeA][dL]NLVC(Acm)[ξC]G-NH2; thioether N-14)	0.11
CC[C@H](C)[C@@H]1NC(=O)[C@H](Cc2ccc(-c3ccccc3)cc2)NC(=O)[C@H](C(C)C)NC(=O)[C@H](Cc2c[nH]c3ccccc23)NC(=O)[C@H](CC(=O)O)NC(=O)[C@H](Cc2ccc(OCC(=O)O)cc2)NC(=O)[C@H](CC(N)=O)NC(=O)CSC[C@@H](C(=O)N[C@@H](C)C(N)=O)NC(=O)[C@H]([C@@H](C)O)NC(=O)[C@H](C(C)C)NC(=O)[C@H](CC(C)C)NC(=O)[C@H](CCN)NC(=O)[C@@H](CC(C)C)NC(=O)[C@H](C)N(C)C1=O [Compound 1396] ({CH2CO}-NY(Carboxymethyl)DWV[Bip]I[NMeA][dL][Dab]LVTCA-NH2; thioether N-14)	0.01
CCC(C)[C@@H]1NC(=O)[C@H](Cc2ccc(-c3ccccc3)cc2)NC(=O)[C@H](C(C)C)NC(=O)[C@H](Cc2cccc(C)c2)NC(=O)[C@H](CC(=O)O)NC(=O)[C@H](Cc2cccc(C)c2)NC(=O)[C@H](Cc2ccncc2)NC(=O)CSC[C@@H](C(=O)N[C@@H](CO)C(=O)O)NC(=O)[C@H](CO)NC(=O)[C@H](C(C)C)NC(=O)[C@H](CC2CCCCC2)NC(=O)[C@H](CCN)NC(=O)[C@@H](CC(C)C)NC(=O)[C@H](C)N(C)C1=O (stereo partly drawn) [Compound 2235] ({CH2CO}-[4Pal][Phe(3-Me)]D[Phe(3-Me)]V[Bip][Ile(3ξ)][NMeA][dL][Dab][Cha]VSCS-OH; thioether N-14)	0.3
CCC(C)[C@@H]1NC(=O)[C@H](Cc2ccc(-c3ccccc3)cc2)NC(=O)[C@H](C(C)C)NC(=O)[C@H](Cc2cccc(C)c2)NC(=O)[C@H](CC(=O)O)NC(=O)[C@H](Cc2ccc(C(=O)O)cc2)NC(=O)[C@H](Cc2ccncc2)NC(=O)CSC[C@@H](C(N)=O)NC(=O)[C@H](CCCN)NC(=O)[C@H](C(C)C)NC(=O)[C@H](CC2CCCCC2)NC(=O)[C@H](CCN)NC(=O)[C@@H](CC(C)C)NC(=O)[C@H](C)N(C)C1=O (stereo partly drawn) [Compound 1899] ({CH2CO}-[4Pal][Phe(4-COOH)]D[Phe(3-Me)]V[Bip][Ile(3ξ)][NMeA][dL][Dab][Cha]V[Orn]C-NH2; thioether N-14)	0.01
CC(C)C[C@@H]1NC(=O)[C@H](Cc2c[nH]c3ccccc23)NC(=O)[C@H](CC(=O)O)NC(=O)[C@H](Cc2ccc(O)cc2)NC(=O)[C@H](Cc2ccccc2)NC(=O)CSC[C@@H](C(=O)NCC(N)=O)NC(=O)[C@H](CO)NC(=O)[C@H](C(C)C)NC(=O)[C@H](CC(C)C)NC(=O)[C@H](CC(N)=O)NC(=O)[C@H](CO)NC(=O)[C@H](C)N(C)C(=O)[C@H](C(C)C)NC(=O)[C@H](Cc2ccc(-c3ccccc3)cc2)NC1=O [Compound 1007] ({CH2CO}-FYDWL[Bip]V[NMeA]SNLVSCG-NH2; thioether N-14)	0.26
CC(C)C[C@@H]1NC(=O)[C@H](Cc2c[nH]c3ccccc23)NC(=O)[C@H](CC(=O)O)NC(=O)[C@H](Cc2cccc(C(=O)O)c2)NC(=O)[C@H](CN)NC(=O)CSC[C@@H](C(=O)NCC(N)=O)NC(=O)[C@H](CO)NC(=O)[C@H](C(C)C)NC(=O)[C@H](CC2CCCCC2)NC(=O)[C@H](CCN)NC(=O)[C@@H](CC(C)C)NC(=O)[C@H](C)N(C)C(=O)[C@H](C(C)C)NC(=O)[C@H](Cc2ccc(-c3ccccc3)cc2)NC1=O [Compound 1877] ({CH2CO}-[Dap][Phe(3-COOH)]DWL[Bip]V[NMeA][dL][Dab][Cha]VSCG-NH2; thioether N-14)	0.01
Cc1cccc(C[C@@H]2NC(=O)[C@H](CC(=O)O)NC(=O)[C@H](Cc3ccc(OCC(=O)O)cc3)NC(=O)[C@H]([C@@H](C)O)NC(=O)CSC[C@@H](C(N)=O)NC(=O)[C@H](CC(=O)O)NC(=O)[C@H](C(C)C)NC(=O)[C@H](CC3CCCCC3)NC(=O)[C@H](CCN)NC(=O)[C@@H](CC(C)C)NC(=O)[C@H](C)N(C)C(=O)[C@H](Cc3ccc(OCC(=O)O)cc3)NC(=O)[C@H](Cc3ccc(-c4ccccc4)cc3)NC(=O)[C@H](Cc3ccc(OCC(=O)O)cc3)NC2=O)c1 [Compound 1670] ({CH2CO}-TY(Carboxymethyl)D[Phe(3-Me)]Y(Carboxymethyl)[Bip]Y(Carboxymethyl)[NMeA][dL][Dab][Cha]VDC-NH2; thioether N-14)	0.08
CCCC[C@@H]1NC(=O)[C@H](CCCNC(=N)N)NC(=O)[C@@H](CC(C)C)NC(=O)[C@H](C)N(C)C(=O)[C@H](C(C)C)NC(=O)[C@H](Cc2ccc(-c3ccccc3)cc2)NC(=O)[C@H](C(C)C)NC(=O)[C@H](Cc2c[nH]c3ccccc23)NC(=O)[C@H](CC(=O)O)NC(=O)[C@H](Cc2ccc(O)cc2)NC(=O)[C@H](CN)NC(=O)CSC[C@@H](C(=O)N[C@@H](C)C(N)=O)NC(=O)[C@H]([C@@H](C)O)NC(=O)[C@H](C(C)C)NC1=O [Compound 1500] ({CH2CO}-[Dap]YDWV[Bip]V[NMeA][dL]R[Nle]VTCA-NH2; thioether N-14)	0.08
